Experimental data from patent US4176009A, “Method of measuring collagenase activity” (Ajinomoto Co., Inc., priority 1976, dated 1979).
Non-standard residues stand in square brackets, D forms with d. Residues, ends and D or L forms follow the SMILES beside them. *: point of attachment. Dnp = O=[N+]([O-])c1ccc(*)c([N+](=O)[O-])c1

Experiments:
purified collagenase [1] = experiment: Rate of hydrolysis of DNP-peptide derivatives by purified collagenase (Example 15); type: biochemical, tadpole; details: 5×10^-4 M peptide, purified collagenase 6.2 U/ml, 37° C., pH 7.5; average of three experiments; extraction with ethyl acetate (* compounds: ethyl acetate-n-butanol 1:0.15)
Description: (§1) Purified collagenase used in Examples was prepared from cultured media of tadpole skin explants as described in Biochem. Biophs. Acta, 263 564(1972), and non-specific peptidases were prepared by subjecting 5 ml of fresh adult human serum to chromatography on a calibrated Sephadex G-200 superfine gel column equilibrated with 0.05 M Tris-HCl buffer, pH 7.5, containing 0.15 M NaCl and 5 mM CaCl2, and gathering the effluent fractions corresponding to molecular weights of 100,000-180,000.
(§2) Various DNP-peptide derivatives were dissolved in 0.05 M Tris-HCl buffer, pH 7.5, containing 0.15 M NaCl, 5 mM CaCl2 and 0.02% bovine serum albumin to make a concentration of 5×10^-4 M. 0.1 ml Each of the peptide derivative solutions was mixed with an equal volume of purified collagenase (6.2 U/ml) or non-specific peptidases and incubated for various periods at 37° C. After stopping the enzyme reaction by adding 0.5 ml of 1 M HCl, the DNP-peptide fragments released were extracted by vigorous shaking with 1 ml of ethylacetate or ethyl acetate-n-butanol (1:0.15, V/V), and worked up as in Example 12.

non-specific peptidases = experiment: Rate of hydrolysis of DNP-peptide derivatives by non-specific peptidases (Example 15); type: biochemical, human; details: 5×10^-4 M peptide, 37° C., pH 7.5; average of three experiments; extraction with ethyl acetate (* compounds: ethyl acetate-n-butanol 1:0.15)
Description: as §1, §2

[2] = tested on: collagenase in synovial fluids; experiment: Hydrolysis of substrate solutions by synovial fluids from patients; collagenase activity (Example 14); type: biochemical, human; details: for OD365/0.1 ml ohr: 0 hr; for OD365/0.1 ml 2hr: 2 hr at 37° C.; for OD365/0.1 ml increment: 2 hr minus 0 hr
Description: (§3) The DNP-peptide fragments released were extracted by vigorous shaking with 1 ml of ethyl acetate-n-butanol (1:0.15, V/V) followed by centrifugation at 3,000-5,000 rpm and room temperature for 10 minutes to separate two layers completely. The degree of hydrolysis was determined by measuring the absorbance of the organic layer at 365 nm.
0.2 ml Each of the substrate (solutions(a) and (b) prepared in Example 12 was mixed with 0.1 ml of synovial fluids from patients with osteoarthritis and rheumatoid arthritis, and incubated for 2 hours at 37° C. After stopping the enzyme reaction by adding 0.5 ml of 1 M hydrochloric acid, the DNP-peptide fragments released were extracted by vigorous shaking with 2 ml of ethyl acetate-n-butanol (1:0.15, V/V), and worked up as in Example 12 to obtain the collagenase activities.

purified collagenase [3] = experiment: Time course of hydrolysis of substrate solutions by purified collagenase (Example 12); type: biochemical, tadpole; details: for 00365 (absorbance of the organic layer at 365 nm): pH 7.5
Description: as §1
DNP-Pro-Gln-Gly-Ile-Ala-Gly-Gln-D-Arg-OH.CH3 COOH.H2 O (4.96 mg) was neutralized with 0.1N sodium hydroxide, and dissolved in 0.05M tris-HCl buffer, pH 7.5, containing 0.15 M NaCl and 5 m MCaCl2 to make 10 ml of the substrate solution (a) having a concentration of 5×10^-4 M. The substrate solution (b) was also prepared similarly by using DNP-Gln-Gly-Ile-Ala-Gly-Gln-D-Arg-OH.CH3 COOH.H2 O (4.48 mg).
0.9 ml Each of the substrate solutions was diluted with 0.88 ml of 0.05M tris-HCl buffer, pH 7.5, containing 0.15 M NaCl, and 5 m MCaCl2. The resulting solution was mixed with 0.02 ml of purified collagenase, and incubated. 0.2 ml Aliquots of the reaction mixture were taken out at 0, 10, 20, 40, 60 and 120 minutes, and mixed with 0.5 ml of 1M hydrochloric acid for stopping the enzyme reaction.
as §3

[4] = synovial fluid of case five, RA
[5] = synovial fluid of case four, OA
[6] = synovial fluid of case three, RA

## CC[C@H](C)[C@H](NC(=O)CNC(=O)[C@H](CCC(N)=O)NC(=O)[C@@H]1CCCN1c1ccc([N+](=O)[O-])cc1[N+](=O)[O-])C(=O)N[C@@H](C)C(=O)NCC(=O)N[C@H](CCCNC(=N)N)C(=O)O [Example 8, DNP-Pro-Gln-Gly-Ile-Ala-Gly-D-Arg-OH] (Dnp-PQGIAG[dR]-OH)
Purified collagenase [1]
  Rate of hydrolysis by Collagenase: 0.157 OD365/hr
non-specific peptidases
  Rate of hydrolysis by non-specific peptidases: 0.021 OD365/hr

## CC[C@H](C)[C@H](NC(=O)CNC(=O)[C@H](CC(C)C)NC(=O)[C@@H]1CCCN1c1ccc([N+](=O)[O-])cc1[N+](=O)[O-])C(=O)N[C@@H](C)C(=O)NCC(=O)N[C@@H](CCC(N)=O)C(=O)N[C@H](CCCNC(=N)N)C(=O)O [Example 9, DNP-Pro-Leu-Gly-Ile-Ala-Gly-Gln-D-Arg-OH] (Dnp-PLGIAGQ[dR]-OH)
Purified collagenase [1]
  Rate of hydrolysis by Collagenase: 0.276 OD365/hr
non-specific peptidases
  Rate of hydrolysis by non-specific peptidases: 0 OD365/hr

## CC[C@H](C)[C@H](NC(=O)CNC(=O)[C@H](CCC(N)=O)Nc1ccc([N+](=O)[O-])cc1[N+](=O)[O-])C(=O)N[C@@H](C)C(=O)NCC(=O)N[C@@H](CCC(N)=O)C(=O)N[C@H](CCCNC(=N)N)C(=O)O [Example 10, DNP-Gln-Gly-Ile-Ala-Gly-Gln-D-Arg-OH]
Purified collagenase [1]
  Rate of hydrolysis by Collagenase: 0 OD365/hr
[2]; [4]
  OD365/0.1 ml ohr: 0.045 OD365/0.1 ml
  OD365/0.1 ml 2hr: 0.045 OD365/0.1 ml
  OD365/0.1 ml increment: 0.000 OD365/0.1 ml
[2]; [5]
  OD365/0.1 ml ohr: 0.038 OD365/0.1 ml
  OD365/0.1 ml 2hr: 0.040 OD365/0.1 ml
  OD365/0.1 ml increment: 0.002 OD365/0.1 ml
[2]; synovial fluid of case one, RA
  OD365/0.1 ml ohr: 0.049 OD365/0.1 ml
  OD365/0.1 ml 2hr: 0.046 OD365/0.1 ml
  OD365/0.1 ml increment: 0 OD365/0.1 ml
[2]; synovial fluid of case six, OA
  OD365/0.1 ml ohr: 0.050 OD365/0.1 ml
  OD365/0.1 ml 2hr: 0.041 OD365/0.1 ml
  OD365/0.1 ml increment: 0 OD365/0.1 ml
[2]; [6]
  OD365/0.1 ml ohr: 0.050 OD365/0.1 ml
  OD365/0.1 ml 2hr: 0.051 OD365/0.1 ml
  OD365/0.1 ml increment: 0.001 OD365/0.1 ml
[2]; synovial fluid of case two, OA
  OD365/0.1 ml ohr: 0.035 OD365/0.1 ml
  OD365/0.1 ml 2hr: 0.038 OD365/0.1 ml
  OD365/0.1 ml increment: 0.003 OD365/0.1 ml
Purified collagenase [3]; incubation time 0 min
  00365 (absorbance of the organic layer at 365 nm): 0.027
Purified collagenase [3]; incubation time 10 min
  increment of 00365: 0
  00365 (absorbance of the organic layer at 365 nm): 0.027
Purified collagenase [3]; incubation time 20 min
  increment of 00365: 0
  00365 (absorbance of the organic layer at 365 nm): 0.027
Purified collagenase [3]; incubation time 40 min
  increment of 00365: 0.002
  00365 (absorbance of the organic layer at 365 nm): 0.030
Purified collagenase [3]; incubation time 60 min
  increment of 00365: 0.002
  00365 (absorbance of the organic layer at 365 nm): 0.029
Purified collagenase [3]; incubation time 120 min
  increment of 00365: 0
  00365 (absorbance of the organic layer at 365 nm): 0.027
non-specific peptidases
  Rate of hydrolysis by non-specific peptidases: 0 OD365/hr

## CC[C@H](C)[C@H](NC(=O)CNC(=O)[C@H](C)Nc1ccc([N+](=O)[O-])cc1[N+](=O)[O-])C(=O)N[C@@H](C)C(=O)NCC(=O)N[C@@H](CCC(N)=O)C(=O)N[C@H](CCCNC(=N)N)C(=O)O [Example 11, DNP-Ala-Gly-Ile-Ala-Gly-Gln-D-Arg-OH]
Purified collagenase [1]
  Rate of hydrolysis by Collagenase: 0 OD365/hr
non-specific peptidases
  Rate of hydrolysis by non-specific peptidases: 0.016 OD365/hr
